Some results are limits rather than exact numbers.

The record followed here is patent publication US10421779B2, “Carbazole compound having anti-virus activity” (priority 2016, dated 2019).

This test relates to HCV genotype 1 b (HCV replicon system). The experiment in a line: HCV replicon system genotype 1b, Renilla luciferase activity. Type of test: cell-based. The following applies: Hepatitis C virus, 72 h; HCV genotype 1b replicon, Rluc, 3 days; read-out: Replicon EC50 1b type. As for the experimental part:
From human liver cells (Huh7.5.1 cell) infected by hepatitis C virus, the anti-virus effects by the compound of the present invention were measured. From HCV genotype 1 b (HCV replicon system), genotype 2a (HCV cell culture system, HCVcc), and genotype 3a, the EC50 values were measured.
In order to measure the EC50 value from HCV genotype 1 b, the degrees of HCV replication inhibitory activities of an experimental compound were measured. The EC50 value was measured by treating the experimental compound with the HCV replicon systems (genotype 1 b) having Renilla luciferase (Rluc) genes and genotype 1 b non-structure genes under various concentration conditions to compare the activity degree of the luciferase after 3 days elapsed time with that of the control.
For orientation: Replicon systems follow genome replication, usually without infectious particles.
For orientation: EC50 means the concentration needed to bring the measured effect to its halfway point. With `CCCCn1c2cc(NC(=O)[C@@H]3CCCN3C(=O)[C@H](NC(=O)OC)c3ccccc3)ccc2c2ccc(NC(=O)[C@@H]3CCCN3C(=O)[C@H](NC(=O)OC)c3ccccc3)cc21` [Example 1, dimethyl ((1R,1′R)-((2S,2′S)-(((9-butyl-9H-carbazole-2,7-diyl)bis(azanediyl))bis(carbonyl))bis(pyrrolidine-2,1-diyl))bis(2-oxo-1-phenylethane-2,1-diyl))dicarbamate], the concentration giving a half-maximal response (EC50) was found to be 0.0104 nM.
Take `CCCCn1c2cc(NC(=O)[C@@H]3CCCN3C(=O)[C@H](NC(=O)OC)C(C)C)ccc2c2ccc(NC(=O)[C@@H]3CCCN3C(=O)[C@H](NC(=O)OC)C(C)C)cc21` [Example 2, dimethyl ((2R,2′R)-((2S,2′S)-(((9-butyl-9H-carbazole-2,7-diyl)bis(azanediyl))bis(carbonyl))bis(pyrrolidine-2,1-diyl))bis(3-methyl-1-oxobutane-1,2-diyl))dicarbamate]: the concentration for a half-maximal effect (EC50) is over 1 nM.
As to `CCCCn1c2cc(NC(=O)C3CCCN3C(=O)[C@@H](NC(=O)OC)c3ccccc3)ccc2c2ccc(NC(=O)[C@@H]3CCCN3C(=O)[C@@H](NC(=O)OC)c3ccccc3)cc21` (stereo partly drawn) [Example 3, dimethyl ((1S,1′S)-((2S,2′S)-(((9-butyl-9H-carbazole-2,7-diyl)bis(azanediyl))bis(carbonyl))bis(pyrrolidine-2,1-diyl))bis(2-oxo-1-phenylethane-2,1-diyl))carbamate], the concentration giving a half-maximal response (EC50) was over 1 nM.
As for `CCCCn1c2cc(NC(=O)[C@@H]3CCCN3C(=O)[C@@H](NC(=O)OC)C(C)C)ccc2c2ccc(NC(=O)[C@@H]3CCCN3C(=O)[C@@H](NC(=O)OC)C(C)C)cc21` [Example 4, dimethyl ((2S,2′S)-((2S,2′S)-(((9-butyl-9H-carbazole-2,7-diyl)bis(azanediyl))bis(carbonyl))bis(pyrrolidine-2,1-diyl))bis(3-methyl-1-oxobutane-1,2-diyl))dicarbamate], the EC50 was in the range of 10 to 100 nM.
Turning to `CCCCn1c2cc(NC(=O)C3CCCN3C(=O)[C@H](C(C)C)N3CCOC3=O)ccc2c2ccc(NC(=O)[C@@H]3CCCN3C(=O)[C@H](C(C)C)N3CCOC3=O)cc21` (stereo partly drawn) [Example 5, (2S,2′S)—N,N′-(9-butyl-9H-carbazole-2,7-diyl)bis(1-((S)-3-methyl-3-2-(2-oxooxazolidine-3-yl)butanoyl)pyrrolidine-2-carboxamide)], the EC50 was over 100 nM.
With `COC(=O)N[C@@H](C(=O)N1CCC[C@H]1C(=O)Nc1ccc2c3ccc(NC(=O)[C@@H]4CCCN4C(=O)[C@H](NC(=O)OC)c4ccccc4)cc3n(C)c2c1)c1ccccc1` [Example 6, dimethyl ((1R,1′R)-((2S,2′S)-(((9-methyl-9H-carbazole-2,7-diyl)bis(azanediyl))bis(carbonyl))bis(pyrrolidine-2,1-diyl))bis(2-oxo-1-phenylethane-2,1-diyl))dicarbamate], the EC50 was 0.0195 nM.
Regarding `COC(=O)N[C@@H](C(=O)N1CCC[C@H]1C(=O)Nc1ccc2c3ccc(NC(=O)[C@@H]4CCCN4C(=O)[C@H](NC(=O)OC)C(C)C)cc3n(C)c2c1)C(C)C` [Example 7, dimethyl ((2R,2′R)-((2S,2′S)-(((9-methyl-9H-carbazole-2,7-diyl)bis(azanediyl))bis(carbonyl))bis(pyrrolidine-2,1-diyl))bis(3-methyl-1-oxobutane-1,2-diyl))dicarbamate], the EC50 was over 1 nM.
Turning to `COC(=O)N[C@H](C(=O)N1CCC[C@H]1C(=O)Nc1ccc2c3ccc(NC(=O)[C@@H]4CCCN4C(=O)[C@@H](NC(=O)OC)c4ccccc4)cc3n(C)c2c1)c1ccccc1` [Example 8, dimethyl ((1S,1′S)-((2S,2′S)-(((9-methyl-9H-carbazole-2,7-diyl)bis(azanediyl))bis(carbonyl))bis(pyrrolidine-2,1-diyl))bis(2-oxo-1-phenylethane-2,1-diyl))dicarbamate], the concentration for a half-maximal effect (EC50) is over 1 nM.
